pIC50: −log10 of the molar value. Like-named read-outs stand apart in the source and are kept apart here.
Columns and labels:
[1] = test system: human monocytic cell line U937; assay: Human U937 cellular necroptosis assay (TNFalpha + z-VAD-FMK, Cell Titer-Glo viability); format: cell-based; conditions: Homo sapiens, U-937, 22 h, U937 cells, 25 ng/mL human TNFalpha + 25 μM z-VAD-FMK, read-out: hU937 Avg IC50
In short: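 Readout is CellTiter-Glo 2.0 luminescence after 22 h at 37° C with compound, in cells triggered by human TNFalpha (25 ng/mL) and z-VAD-FMK (25 μM) in phenol red-free RPMI/10% FBS. Values are run-averaged IC50s from a four-parameter logistic curve.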

RIPK1 = RIPK1 (Homo sapiens (Human), UniProt Q13546); assay: ADP-Glo kinase assay (RIPK1 activity, conversion of ATP to ADP); format: biochemical; conditions: 5 nM RIPK1, 50 μM ATP, 6 h reaction, read-out: RIPK1 Enzyme Avg IC50
In short: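 RIPK1 (5 nM final) was preincubated 10 min at rt with 1:3-diluted compounds in HEPES pH 7.5/MgCl2/DTT/BSA/CHAPS buffer. ATP (50 μM final) was then added for 6 h, and ADP formed was read by ADP-Glo luminescence. IC50 values came from four-parameter logistic fitting.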

Sequence of RIPK1 (Q13546 1-327): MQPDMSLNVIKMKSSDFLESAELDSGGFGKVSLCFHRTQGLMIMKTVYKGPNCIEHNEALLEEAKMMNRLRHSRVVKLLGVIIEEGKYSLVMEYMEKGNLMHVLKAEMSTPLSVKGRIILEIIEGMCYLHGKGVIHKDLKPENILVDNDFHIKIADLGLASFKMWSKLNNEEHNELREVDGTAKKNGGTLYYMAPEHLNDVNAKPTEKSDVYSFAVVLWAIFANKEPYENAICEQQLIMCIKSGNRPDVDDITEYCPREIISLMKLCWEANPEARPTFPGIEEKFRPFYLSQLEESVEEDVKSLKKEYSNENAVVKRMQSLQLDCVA

pIC50 (RIPK1) | pIC50 (RIPK1; footnote symbol (a)) | Molecule | pIC50 [1]
6.49 |  | N#Cc1cnn2ccn(CC34CC(C(=O)N5N=CCC5c5cc(F)cc(F)c5)(C3)C4)c12 (stereo not drawn) [Example 146, 1-((3-(5-(3,5-difluorophenyl)-4,5-dihydro-1H-pyrazole-1-carbonyl)bicyclo[1.1.1]-pentan-1-yl)methyl)-1H-imidazo[1,2-b]pyrazole-7-carbonitrile] | 5.72
6.62 |  | Cc1nn(CC23CC(C(=O)N4N=CCC4c4cncc(F)c4)(C2)C3)c2ccc(C#N)cc12 (stereo not drawn) [Example 130, 1-((3-(5-(5-fluoropyridin-3-yl)-4,5-dihydro-1H-pyrazole-1-carbonyl)bicyclo[1.1.1]-pentan-1-yl)methyl)-3-mcthyl-1H-indazole-5-carbonitrile] | 5.91
5.99 |  | N#Cc1ccc2c(cnn2CC23CC(C(=O)N4N=CCC4c4ccc5nccn5c4)(C2)C3)c1 (stereo not drawn) [Example 258, 1-((3-(5-(imidazo[1,2-a]-pyridin-6-yl)-4,5-dihydro-1H-pyrazole-1-carbonyl)bicyclo-[1.1.1]pentan-1-yl)methyl)-1H-indazole-5-carbonitrile] | 5.42
7.31 |  | N#Cc1ccc2c(cnn2CC23CC(C(=O)N4CCC4c4cccs4)(C2)C3)c1 (stereo not drawn) [Example 255, 1-((3-(2-(thiophen-2-yl)-azetidine-1-carbonyl)bicyclo-[1.1.1]pentan-1-yl)methyl)-1H-indazole-5-carbonitrile] | 6.26
7.68 |  | O=C(N1N=CCC1c1cc(F)cc(F)c1)C12CC(COc3ncc(F)cn3)(C1)C2 (stereo not drawn) [Example 325, (5-(3,5-difluorophenyl)-4,5-dihydro-1H-pyrazol-1-yl)(3-(((5-fluoropyrimidin-2-yl)-oxy)methyl)bicyclo[1.1.1]-pentan-1-yl)methanone] | 6.71
5.36 |  | CC1CC(c2cccc(F)c2)N(C(=O)C23CC(Cn4cc(C#N)cn4)(C2)C3)C1 (stereo not drawn) [Example 172, 1-((3-(2-(3-fluorophenyl)-4-methylpyrrolidine-1-carbonyl)bicyclo[1.1.1]-pentan-1-yl)methyl)-1H-pyrazole-4-carbonitrile] | < 5.00
7.62 |  | Cc1ccccc1OCC12CC(C(=O)N3N=CCC3c3cc(F)cc(F)c3)(C1)C2 (stereo not drawn) [Example 337, (5-(3,5-difluorophenyl)-4,5-dihydro-1H-pyrazol-1-yl)(3-((o-tolyloxy)methyl)bicyclo-[1.1.1]pentan-1-yl)methanone] | 6.85
7.10 |  | N#Cc1cccc2cn(CC34CC(C(=O)N5N=CCC5c5cc(F)cc(F)c5)(C3)C4)nc12 (stereo not drawn) [Example 142, 2-((3-(5-(3,5-difluorophenyl)-4,5-dihydro-1H-pyrazole-1-carbonyl)bicyclo[1.1.1]pentan-1-yl)methyl)-2H-indazole-7-carbonitrile] | 6.12
7.49 |  | N#Cc1ccc(OCC23CC(C(=O)N4N=CCC4c4cc(F)cc(F)c4)(C2)C3)c(Cl)c1 (stereo not drawn) [Example 202, 3-Chloro-4-((3-(5-(3,5-difluorophenyl)-4,5-dihydro-1H-pyrazole-1-carbonyl)bicyclo[1.1.1]pentan-1-yl)methoxy)benzonitrile] | 7.74
7.29 |  | N#Cc1ccc2c(cnn2CC23CC(C(=O)N4N=CC[C@H]4c4cc(F)cc(F)c4)(C2)C3)c1 [Example 253, (S)-1-((3-(5-(3,5-difluoro-phenyl)-4,5-dihydro-1H-pyrazole-1-carbonyl)bicyclo-[1.1.1]pentan-1-yl)methyl)-1H-indazole-5-carbonitrile] | 6.32
6.42 |  | N#Cc1cccc(C2CC=NN2C(=O)C23CC(Cn4cc(C#N)cn4)(C2)C3)c1 (stereo not drawn) [Example 137, 1-((3-(5-(3-cyanophenyl)-4,5-dihydro-1H-pyrazole-1-carbonyl)bicyclo[1.1.1]-pentan-1-yl)methyl)-1H-pyrazole-4-carbonitrile] | 5.57
7.80 |  | N#Cc1ccc(OCC23CC(C(=O)N4N=CCC4c4cc(F)cc(F)c4)(C2)C3)c(F)c1 (stereo not drawn) [Example 333, 4-((3-(5-(3,5-difluorophenyl)-4,5-dihydro-1H-pyrazole-1-carbonyl)bicyclo[1.1.1]pentan-1-yl)methoxy)-3-fluoro-benzonitrile] | 7.44
7.96 |  | N#Cc1cnc2c(ccn2CC23CC(C(=O)N4N=CCC4c4cc(F)cc(F)c4)(C2)C3)c1 (stereo not drawn) [Example 212, 1-((3-(5-(3,5-difluorophenyl)-4,5-dihydro-1H-pyrazole-1-carbonyl)bicyclo[1.1.1]pentan-1-yl)methyl)-1H-pyrrolo[2,3-b]pyridine-5-carbonitrile] | 7.72
5.41 |  | COCc1cn(CC23CC(C(=O)N4N=CCC4c4cc(F)cc(F)c4)(C2)C3)nn1 (stereo not drawn) [Example 149, (5-(3,5-difluorophenyl)-4,5-dihydro-1H-pyrazol-1-yl)(3-((4-(methoxymethyl)-1H-1,2,3-triazol-1-yl)methyl)-bicyclo[1.1.1]pentan-1-yl)methanone] | 

The remaining lines, values behind:

Molecule | pIC50 (RIPK1) | pIC50 (RIPK1; footnote symbol (a)) | pIC50 [1]
N#Cc1cc(NCC23CC(C(=O)N4N=CCC4c4cc(F)cc(F)c4)(C2)C3)ncn1 (stereo not drawn) [Example 12, 6-(((3-(5-(3,5-Difluorophenyl)-4,5-dihydro-1H-pyrazole-1-carbonyl)bicyclo[1.1.1]pentan-1-yl)methyl)amino)pyrimidine-4-carbonitrile] | 6.61 |  | 6.05
O=C(N1N=CCC1c1cc(F)cc(F)c1)C12CC(Cn3c(=O)[nH]c4ccccc43)(C1)C2 (stereo not drawn) [Example 109, 1-((3-(5-(3,5-difluorophenyl)-4.5-dihydro-1H-pyrazole-1-carbonyl)bicyclo[1.1.1]-pentan-1-yl)methyl)-1,3-dihydro-2H-benzo[d]-imidazol-2-one] | 7.38 |  | 6.33
O=C(N1N=CCC1c1cc(F)cc(F)c1)C12CC(Cn3cc4cc(F)ccc4n3)(C1)C2 (stereo not drawn) [Example 3, (5-(3,5-Difluorophenyl)-4,5-dihydro-1H-pyrazol-1-yl)(3-((5-fluoro-2H-indazol-2-yl)methyl)bicyclo[1.1.1]pentan-1-yl)methanone] | 7.29 |  | 6.95
N#Cc1cn(CC23CC(C(=O)N4N=CCC4c4cc(F)cc(F)c4)(C2)C3)cn1 (stereo not drawn) [Example 124, 1-((3-(5-(3,5-difluorophenyl)-4,5-dihydro-1H-pyrazole-1-carbonyl)bicyclo[1.1.1]-pentan-1-yl)methyl)-1H-imidazole-4-carbonitrile] | 6.81 |  | 6.12
N#Cc1cc(OCC23CC(C(=O)NCc4cc(F)cc(F)c4)(C2)C3)ncn1 [Example 104, 3-(((6-cyanopyrimidin-4-yl)oxy)methyl)-N-(3,5-difluorobenzyl)bicyclo-[1.1.1]pentane-1-carboxamide] | 5.52 |  | 
(5-(3,5-difluorophenyl)-4,5-dihydro-1H-pyrazol-1-yl)(3-((6-fluoro-2-methyl-1H-benzo[d]imidazol-1-yl)-methyl)bicyclo[1.1.1]pentan-1-yl)methanone and (5-(3,5-difluorophenyl)-4,5-dihydro-1H-pyrazol-1-yl)(3-((5-fluoro-2-methyl-1H-benzo[d]imidazol-1-yl)-methyl)bicyclo[1.1.1]pentan-1-yl)methanone [Example 188] | 6.34 |  | 
CCOC12CC(C(=O)N3N=CCC3c3ccccc3)(C1)C2 (stereo not drawn) [Example 46, (3-Ethoxybicyclo[1.1.1]pentan-1-yl)(5-phenyl-4,5-dihydro-1H-pyrazol-1-yl)methanone] | 6.80 |  | 
O=C(N1N=CCC1c1cc(F)cc(F)c1)C12CC(CN3CC(F)(F)C3)(C1)C2 (stereo not drawn) [Example 79, (3-((3,3-difluoroazetidin-1-yl)methyl)bicyclo[1.1.1]-pentan-1-yl)(5-(3,5-difluoro-phenyl)-4,5-dihydro-1H-pyrazol-1-yl)methanone] | 6.37 |  | 
COC(=O)C12CC(C(=O)N3CC[C@@H](Oc4cc(F)ccc4F)C3)(C1)C2 [Example 37, Methyl (R)-3-(3-(2,5-difluorophenoxy)pyrrolidine-1-carbonyl)-bicyclo[1.1.1]pentane-1-carboxylate] |  | < 4.30 | 
N#Cc1cccc(NC(=O)C23CC(C(=O)N4N=CCC4c4cc(F)cc(F)c4)(C2)C3)c1 (stereo not drawn) [Example 77, N-(3-cyanophenyl)-3-(5-(3,5-difluorophenyl)-4,5-dihydro-1H-pyrazole-1-carbonyl)-bicyclo[1.1.1]pentane-1-carboxamide] | 5.15 |  | 
Cc1cc(C)n(CC23CC(C(=O)N4N=CCC4c4cc(F)cc(F)c4)(C2)C3)n1 (stereo not drawn) [Example 75, (5-(3,5-difluorophenyl)-4,5-dihydro-1H-pyrazol-1-yl)(3-((3,5-dimethyl-1H-pyrazol-1-yl)methyl)bicyclo[1.1.1]-pentan-1-yl)methanone] | 6.49 |  | 
NC(=O)c1cc(OCC23CC(C(=O)N4CC(F)CC4c4cccc(F)c4)(C2)C3)ncn1 (stereo not drawn) [Example 98, 6-((3-(4-fluoro-2-(3-fluorophenyl)pyrrolidine-1-carbonyl)bicyclo[1.1.1]-pentan-1-yl)methoxy)-pyrimidine-4-carboxamide] | 6.62 |  | 
Cc1nnc(CC23CC(C(=O)N4N=CCC4c4cc(F)cc(F)c4)(C2)C3)o1 (stereo not drawn) [Example 20, (5-(3,5-Difluorophenyl)-4,5-dihydro-1H-pyrazol-1-yl)(3-((5-methyl-1,3,4-oxadiazol-2-yl)methyl)bicyclo[1.1.1]pentan-1-yl)methanone] | 5.95 |  | 
Cc1cccc(C2CCCN2C(=O)C23CC(C2)C3)c1 (stereo not drawn) [Example 113, bicyclo[1.1.1]pentan-1-yl(2-(m-tolyl)pyrrolidin-1-yl)methanone] | 5.37 |  | 
